Source: PubChem BioAssay (NCI)
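Values below derive from 48-hour exposures of cells grown in 96-well plates, with endpoints linearly interpolated between the two concentrations bracketing the appropriate inhibition level. GI50 is the concentration that inhibits growth by half. TGI marks complete inhibition of growth.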

Experiments:
Test in all cases: NCI-60 cell line screen, 48 h
SK-MEL-2 melanoma = tested on: SK-MEL-2 melanoma
MCF7 breast = tested on: MCF7 breast
SK-MEL-5 melanoma = tested on: SK-MEL-5 melanoma
KM12 colon = tested on: KM12 colon
HOP-62 NSCLC = tested on: HOP-62 NSCLC
OVCAR-8 ovarian = tested on: OVCAR-8 ovarian
UACC-257 melanoma = tested on: UACC-257 melanoma
SR leukemia = tested on: SR leukemia
RPMI-8226 leukemia = tested on: RPMI-8226 leukemia

Row | SMILES | TGI (SK-MEL-2 melanoma) | TGI (MCF7 breast) | TGI (SK-MEL-5 melanoma) | TGI (KM12 colon) | TGI (HOP-62 NSCLC) | TGI (OVCAR-8 ovarian) | TGI (UACC-257 melanoma) | TGI (SR leukemia) | TGI (RPMI-8226 leukemia) | GI50 (SK-MEL-2 melanoma) | GI50 (KM12 colon) | GI50 (MCF7 breast) | GI50 (SK-MEL-5 melanoma) | GI50 (HOP-62 NSCLC) | GI50 (SR leukemia)
1 | Cc1cc(-c2nc3ccccc3s2)ccc1NC(=O)[C@H](C)N | 34.3 µM | 20.4 µM | 26.1 µM | 31.1 µM | 28.3 µM | 37.4 µM | 33.2 µM | 13.4 µM | – | – | – | – | – | – | –
2 | O=C1/C(=C/c2ccccc2[N+](=O)[O-])N=C(c2ccccc2)N1C1Nc2cc3c(cc2S1)NC(N1C(=O)/C(=C/c2ccccc2[N+](=O)[O-])N=C1c1ccccc1)S3 (stereo not drawn) | > 100 µM | > 100 µM | > 100 µM | > 100 µM | > 100 µM | > 100 µM | > 100 µM | 90.3 µM | 49.7 µM | – | – | – | – | – | –
3 | Oc1[nH]c2ccccc2c1N=Nc1nc(-c2ccc(Cl)c(Cl)c2)cs1 | > 100 µM | > 100 µM | > 100 µM | > 100 µM | > 100 µM | > 100 µM | > 100 µM | – | – | – | – | – | – | – | –
4 | COc1cc(CC2c3cc(OC)c(OC)cc3CCN2C)c(Oc2cc3c(cc2OC)-c2c(O)c(OC)cc4c2C(C3)N(C)CC4)cc1OC (stereo not drawn) | 58.5 µM | 29.1 µM | 32.8 µM | 31.3 µM | > 100 µM | 44.5 µM | 37.4 µM | 17.5 µM | – | – | – | – | – | – | –
5 | O=C(N/N=C/c1cc(Cl)cc(Cl)c1[O-])c1ccccc1O.O=C(N/N=C/c1cc(Cl)cc(Cl)c1[O-])c1ccccc1O.[Ni+2] | 1.35 µM | – | 1.18 µM | 5.66 µM | 2.09 µM | 1.41 µM | 2.67 µM | 1.46 µM | – | 0.329 µM | 0.494 µM | – | – | – | –
6 | COC(=O)/C=C1\CCC(C)(C(=O)NS(=O)(=O)c2ccc(C)cc2)C1(C)C (stereo not drawn) | > 100 µM | > 100 µM | > 100 µM | > 100 µM | > 100 µM | > 100 µM | > 100 µM | – | > 100 µM | – | – | – | – | – | –
7 | C=C(C)C(=O)[C@@]12C(=O)[C@@H](C)CC[C@H]1[C@H](C)C[C@@H]2C=C(C)C | 26.7 µM | 52.3 µM | 45.1 µM | 56.4 µM | > 100 µM | > 100 µM | 33.5 µM | – | > 100 µM | – | – | – | – | – | –
8 | O=C(c1ccccc1)c1ccc2nc(-c3c(Cl)c(Cl)c(Cl)c(Cl)c3C(=O)N/N=C/c3ccccc3)[nH]c2c1 | 67.5 µM | 41.9 µM | 33.4 µM | > 100 µM | 99.7 µM | > 100 µM | 85 µM | – | 63 µM | – | – | – | – | – | –
9 | O=C1NC2(CCCCC2)C2CCCCCC12 (stereo not drawn) | – | – | – | > 100 µM | > 100 µM | – | > 100 µM | > 100 µM | – | – | – | – | – | – | –
10 | Fc1ccc(N=NN2CCCC2)cc1 | > 100 µM | > 100 µM | > 100 µM | > 100 µM | > 100 µM | – | > 100 µM | > 100 µM | > 100 µM | – | – | – | – | – | –
11 | O=C(NC1CCN(Cc2ccccc2)CC1)c1cc2nc(-c3ccc(Cl)s3)cc(C(F)(F)F)n2n1 | – | > 100 µM | > 100 µM | – | > 100 µM | – | – | 4.97 µM | – | – | – | 8.98 µM | 6.34 µM | 27 µM | 2.13 µM
12 | COc1cc(/C=C2\N=C(c3ccccc3)N(c3nc4c(OC)ccc(OC)c4s3)C2=O)cc(OC)c1OC | > 100 µM | > 100 µM | > 100 µM | > 100 µM | > 100 µM | > 100 µM | > 100 µM | – | > 100 µM | – | – | – | – | – | –
